Tests used:
[1] = tested on: LDL; experiment: Cu^2+-induced LDL oxidation in vitro (conjugated dienes, absorbance at 234 nm); format: biochemical; set-up: key to Lag phase / Oxidation rate / Maximum quantity of dienes: NC: Not calculated since the samples totally inhibits the LDL from oxidation
Procedure: LDL was concentrated from the plasma of normolipidemic donors by density gradient ultracentrifugation. Prior to oxidation, LDL was diluted in a phosphate buffered saline (PBS) and dialyzed against PBS at 4° C. to remove EDTA. The protein content was determined and adjusted to obtain 0.125 mg of protein/mL. […] The amounts of conjugated dienes were measured by determining the increased absorbance at 234 nm at 10 min intervals for a course span of 720 min using a Tecan Ultra Spectrophotometer (Tecan, Austria). Results were expressed as the relative absorbance at 234 nm. The lag phase, oxidation rate, and the maximum quantity of conjugated dienes were calculated. Results are reported as the mean±SD of three trials for each test. Differential between groups was calculated using the Student's t-test (XLSTAT 2008, Addinsoft™, USA), and the statistical significance was set at P<0.05.

[2] = target: T1, pancreatic lipase (Homo sapiens, UniProt P16233); settings: cited from earlier work
T1 sequence (P16233 17-465): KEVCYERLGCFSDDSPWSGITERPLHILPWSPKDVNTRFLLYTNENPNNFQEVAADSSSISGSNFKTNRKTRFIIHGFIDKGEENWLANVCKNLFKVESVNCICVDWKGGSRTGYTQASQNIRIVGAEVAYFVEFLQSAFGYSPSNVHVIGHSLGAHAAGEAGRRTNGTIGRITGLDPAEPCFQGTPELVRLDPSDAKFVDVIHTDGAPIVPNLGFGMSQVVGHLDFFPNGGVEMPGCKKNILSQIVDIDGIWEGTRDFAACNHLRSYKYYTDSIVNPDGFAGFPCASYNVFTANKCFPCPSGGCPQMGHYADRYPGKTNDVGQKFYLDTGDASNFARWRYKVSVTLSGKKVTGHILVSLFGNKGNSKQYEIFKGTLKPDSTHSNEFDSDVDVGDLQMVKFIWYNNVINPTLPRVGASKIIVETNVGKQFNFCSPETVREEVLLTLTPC

[3] = target: T2, human PPARγ (Homo sapiens, UniProt P37231); settings: cited from earlier work
T2 sequence (P37231 1-505): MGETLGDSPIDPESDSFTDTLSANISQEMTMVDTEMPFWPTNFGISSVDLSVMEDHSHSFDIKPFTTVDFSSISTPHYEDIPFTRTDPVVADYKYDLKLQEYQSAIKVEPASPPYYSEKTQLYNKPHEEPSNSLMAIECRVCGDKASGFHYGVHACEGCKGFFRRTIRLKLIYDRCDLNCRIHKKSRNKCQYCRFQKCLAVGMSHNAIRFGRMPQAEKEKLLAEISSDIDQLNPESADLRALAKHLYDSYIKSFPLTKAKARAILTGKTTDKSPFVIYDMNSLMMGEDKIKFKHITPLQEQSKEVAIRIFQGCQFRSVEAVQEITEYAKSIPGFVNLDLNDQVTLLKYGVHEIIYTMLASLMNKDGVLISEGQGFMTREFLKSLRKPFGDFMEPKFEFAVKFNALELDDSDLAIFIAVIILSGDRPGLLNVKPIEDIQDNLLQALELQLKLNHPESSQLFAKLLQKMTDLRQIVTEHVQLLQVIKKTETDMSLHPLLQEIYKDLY

[4] = tested on: olive oil-loaded mice; settings: doses of 5-20 mg/kg; cited from earlier work
[5] = tested on: mice fed a high fat diet; settings: 20 mg/kg/day; after 14 days; cited from earlier work

Row | Compound | Lag phase ([1]; 10 μM, mean ± SD, three trials) [min] | Maximum quantity of dienes ([1]; 10 μM, mean ± SD, three trials) | Oxidation rate ([1]; 10 μM, mean ± SD, three trials) [min⁻¹] | Lag phase ([1]; 100 μM) | Maximum quantity of dienes ([1]; 100 μM) | Oxidation rate ([1]; 100 μM) | inhibition of LDL oxidation ([1]; 100 μM) | pancreatic lipase activity [2] | activation of human PPARγ [3] | triglyceride elevation [4] | gain of body weight and accumulation of epididymal fat weight [5]
1 | Cc1c(C)c2c(c(C)c1O)CCC(C)(C(=O)O)O2 (stereo not shown) [Trolox] | 180 ± 5.2 | 99.0 ± 1.2 nmol/mg of LDL | 80.1 ± 4.1 | NC | NC | NC | complete inhibition |  |  |  | 
2 | CC(C)c1cc2c(c(O)c1O)[C@@]13CCCC(C)(C)[C@@H]1C[C@@H]2OC3=O [carnosol] |  |  |  |  |  |  |  | substantially inhibited | activators |  | 
3 | CC(C)c1cc2c(c(O)c1O)[C@@]1(C(=O)O)CCCC(C)(C)[C@@H]1CC2 [carnosic acid] |  |  |  |  |  |  |  | substantially inhibited | activators | significantly inhibited | reduced
